The text below walks through data of PubChem BioAssay AID330 (DTP/NCI, 2004).

“And” between values parts separate entries of the source, which are not always exact repeats. Identical values can stand only once. Toxic doses and inconclusive results are not listed.

This experiment relates to P388 leukemia ip, CD2F1 mice, survival T/C. Put plainly: NCI In Vivo Anticancer Drug Screen. Data for tumor model P388 Leukemia (intraperitoneal) in CD2F1 (CDF1) mice. The conditions noted are these: endpoint: median survival time, higher = longer survival. Summed up: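 Mice carrying the transplanted tumor received test compound or vehicle. Survival was recorded in each group, and the value is the treated-group measurement divided by that of the vehicle-treated control group.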

Setting [1] is: dose: 50.0 mg/kg/injection, schedule: Q01DX009 (ip), vehicle: saline with Tween-80.
Where [2] appears, read: dose: 100.0 mg/kg/injection, schedule: Q01DX009 (ip), vehicle: saline with Tween-80.
Setting [3] is: dose: 200.0 mg/kg/injection, schedule: Q01DX009 (ip), vehicle: saline with Tween-80.
Setting [4] is: dose: 50.0 mg/kg/injection, schedule: Q01DX009 (ip), vehicle: Klucel (hydroxypropylcellulose) (HPC).
The mark [5] stands for this setting: dose: 100.0 mg/kg/injection, schedule: Q01DX009 (ip), vehicle: Klucel (hydroxypropylcellulose) (HPC).
[6] abbreviates: dose: 200.0 mg/kg/injection, schedule: Q01DX009 (ip), vehicle: Klucel (hydroxypropylcellulose) (HPC).
The mark [7] stands for this setting: dose: 25.0 mg/kg/injection, schedule: Q01DX009 (ip), vehicle: Klucel (hydroxypropylcellulose) (HPC).
Where [8] appears, read: dose: 50.0 mg/kg/injection, schedule: Q01DX009 (ip), vehicle: saline.
Where [9] appears, read: dose: 100.0 mg/kg/injection, schedule: Q01DX009 (ip), vehicle: saline.

In the case of `COCCOCCOCCOCCOCCOCCOCCOCCOCCOCCOCCOCCOCCOCCn1cc(F)c(=O)[nH]c1=O`, the T/C is 100 % of control (dose: 100.0 mg/kg/injection, schedule: Q04DX002 (ip), vehicle: saline); 101 % of control (dose: 200.0 mg/kg/injection, schedule: Q04DX002 (ip), vehicle: saline); 104 % of control (dose: 400.0 mg/kg/injection, schedule: Q04DX002 (ip), vehicle: saline); 100 % of control (dose: 800.0 mg/kg/injection, schedule: Q04DX002 (ip), vehicle: saline).
On to `O=S(=O)(OC1=CCCCC1)C(F)(F)F`, for which the T/C under setting [1] was 100 % of control; the T/C under setting [2] is 109 % of control; the T/C under setting [3] is 112 % of control; the T/C (dose: 400.0 mg/kg/injection, schedule: Q01DX009 (ip), vehicle: saline with Tween-80) was 115 % of control.
In the case of `COc1ccc(CCN2C(=O)C(=O)N(C)C2=O)cc1OC`, the T/C is, setting by setting: under setting [4], 90 % of control; under setting [5], 96 % of control; under setting [6], 102 % of control.
On to `Cc1ccn(C(=O)C2=Cc3ccccc3OC2)c(=N)c1`, for which the T/C (dose: 100.0 mg/kg/injection, schedule: Q04DX003 (ip), vehicle: Klucel (hydroxypropylcellulose) (HPC)) is 106 % of control; the T/C (dose: 200.0 mg/kg/injection, schedule: Q04DX003 (ip), vehicle: Klucel (hydroxypropylcellulose) (HPC)) was 103 % of control; the T/C (dose: 400.0 mg/kg/injection, schedule: Q04DX003 (ip), vehicle: Klucel (hydroxypropylcellulose) (HPC)) was 100 % of control.
Regarding `CC1=Nc2ccccc2NC(=O)C1`, the T/C (dose: 12.5 mg/kg/injection, schedule: Q01DX009 (ip), vehicle: Klucel (hydroxypropylcellulose) (HPC)) was 99 % of control; the T/C under setting [7] was 108 % of control; the T/C under setting [4] is 100 % of control; the T/C under setting [5] was 108 % of control.
On to `CCCN(CCC)/N=C/c1c2c(O)c3c(O)c(C)c4c(c3c1O)C(=O)C(C)(O/C=C/C(OC)C(C)C(OC(C)=O)C(C)C(O)C(C)C(O)C(C)/C=C/C=C(C)C(=O)N2)O4` (stereo not drawn), for which the T/C was 110 % of control (dose: 60.0 mg/kg/injection, schedule: Q01DX005 (ip), vehicle: Klucel (hydroxypropylcellulose) (HPC)) and 122 % of control (dose: 120.0 mg/kg/injection, schedule: Q01DX005 (ip), vehicle: Klucel (hydroxypropylcellulose) (HPC)).
Regarding `CO/C=C(/C#N)S(=O)(=O)/C(C#N)=C/OC`, the T/C is 100 % of control (dose: 50.0 mg/kg/injection, schedule: Q01DX005 (ip), vehicle: saline with Tween-80); 112 % of control (dose: 100.0 mg/kg/injection, schedule: Q01DX005 (ip), vehicle: saline with Tween-80); 104 % of control (dose: 200.0 mg/kg/injection, schedule: Q01DX005 (ip), vehicle: saline with Tween-80).
On to `Cc1ccc(NCCNCCO)c2c(=O)c3cc(O)ccc3sc12`, for which the T/C was 150 % of control (dose: 6.25 mg/kg/injection, schedule: Q01DX009 (ip), vehicle: saline with Tween-80); 156 % of control and 169 % of control (dose: 12.5 mg/kg/injection, schedule: Q01DX009 (ip), vehicle: saline with Tween-80); 103 % of control (dose: 25.0 mg/kg/injection, schedule: Q01DX009 (ip), vehicle: saline with Tween-80).
Turning to `CC1(c2ccc3ccccc3c2)C(C#N)(C#N)C1(C#N)C#N`, the T/C is 100 % of control (dose: 12.5 mg/kg/injection, schedule: Q01DX009 (ip), vehicle: saline); 102 % of control (dose: 25.0 mg/kg/injection, schedule: Q01DX009 (ip), vehicle: saline); 89 % of control under setting [8]; 103 % of control under setting [9].
For `NC(=O)NC1(C(=O)O)CCCC1`, the T/C under setting [7] was 102 % of control, the T/C under setting [4] is 103 % of control, the T/C under setting [5] was 103 % of control and the T/C under setting [6] was 105 % of control.
For `CCC[N+]1=C/c2ccccc2OC(=O)/C=C\1[O-]`, the T/C by setting is: (dose: 60.0 mg/kg/injection, schedule: Q01DX005 (ip), vehicle: saline with Tween-80) 101 % of control; (dose: 120.0 mg/kg/injection, schedule: Q01DX005 (ip), vehicle: saline with Tween-80) 99 % of control; (dose: 240.0 mg/kg/injection, schedule: Q01DX005 (ip), vehicle: saline with Tween-80) 100 % of control.
On to `Nc1ncnc2c1ccn2Cc1c(F)cccc1Cl`, for which the T/C was 100 % of control (dose: 50.0 mg/kg/injection, schedule: Q01DX005 (ip), vehicle: distilled water + alcohol); 101 % of control (dose: 100.0 mg/kg/injection, schedule: Q01DX005 (ip), vehicle: distilled water + alcohol); 105 % of control (dose: 200.0 mg/kg/injection, schedule: Q01DX005 (ip), vehicle: distilled water + alcohol).
As for `Cc1c(C(=O)c2ccc3c(c2)OCO3)ccc2c1OCO2`, the T/C (dose: 50.0 mg/kg/injection, schedule: Q01DX005 (ip), vehicle: Klucel (hydroxypropylcellulose) (HPC)) was 105 % of control; the T/C (dose: 100.0 mg/kg/injection, schedule: Q01DX005 (ip), vehicle: Klucel (hydroxypropylcellulose) (HPC)) is 105 % of control; the T/C (dose: 200.0 mg/kg/injection, schedule: Q01DX005 (ip), vehicle: Klucel (hydroxypropylcellulose) (HPC)) is 98 % of control.
Take `Cc1nn(-c2ccc(Cl)cc2)c2nc(N)nc(N)c12`: the T/C is, setting by setting: (dose: 6.25 mg/kg/injection, schedule: Q04DX002 (ip), vehicle: Klucel (hydroxypropylcellulose) (HPC)) 92 % of control; (dose: 12.5 mg/kg/injection, schedule: Q04DX002 (ip), vehicle: Klucel (hydroxypropylcellulose) (HPC)) 89 % of control and 93 % of control; (dose: 25.0 mg/kg/injection, schedule: Q04DX002 (ip), vehicle: Klucel (hydroxypropylcellulose) (HPC)) 92 % of control; (dose: 50.0 mg/kg/injection, schedule: Q04DX002 (ip), vehicle: Klucel (hydroxypropylcellulose) (HPC)) 89 % of control; (dose: 100.0 mg/kg/injection, schedule: Q04DX002 (ip), vehicle: Klucel (hydroxypropylcellulose) (HPC)) 105 % of control; (dose: 200.0 mg/kg/injection, schedule: Q04DX002 (ip), vehicle: Klucel (hydroxypropylcellulose) (HPC)) 115 % of control. The T/C (dose: 400.0 mg/kg/injection, schedule: Q04DX002 (ip), vehicle: Klucel (hydroxypropylcellulose) (HPC)) was 113 % of control.
Turning to `CSC(=S)N/N=C(\C)c1ccccn1`, the T/C reads like this: under setting [8], 92 % of control; under setting [9], 92 % of control; (dose: 200.0 mg/kg/injection, schedule: Q01DX009 (ip), vehicle: saline) 99 % of control; (dose: 400.0 mg/kg/injection, schedule: Q01DX009 (ip), vehicle: saline) 106 % of control.
For the molecule `CCC(/C=C/c1ccccc1)=N\NC(=O)c1ccc(C)cc1`, the T/C runs as follows: (dose: 6.25 mg/kg/injection, schedule: Q01DX005 (ip), vehicle: saline with Tween-80) 98 % of control; (dose: 12.5 mg/kg/injection, schedule: Q01DX005 (ip), vehicle: saline with Tween-80) 92 % of control; (dose: 25.0 mg/kg/injection, schedule: Q01DX005 (ip), vehicle: saline with Tween-80) 89 % of control.
With `O=[N+]([O-])c1ccc(OCC#CCOc2ccc([N+](=O)[O-])c(C(F)(F)F)c2)cc1C(F)(F)F`, the T/C was 105 % of control (dose: 50.0 mg/kg/injection, schedule: Q01DX009 (ip), vehicle: other); 104 % of control (dose: 100.0 mg/kg/injection, schedule: Q01DX009 (ip), vehicle: other); 102 % of control (dose: 200.0 mg/kg/injection, schedule: Q01DX009 (ip), vehicle: other).
As for `CC(=NC(C)C)Nc1ccc(Cl)cc1C`, the T/C by setting is: (dose: 50.0 mg/kg/injection, schedule: Q01DX009 (ip), vehicle: saline + Tween-80 + alcohol) 101 % of control; (dose: 100.0 mg/kg/injection, schedule: Q01DX009 (ip), vehicle: saline + Tween-80 + alcohol) 95 % of control.
For `CCCCCCCCCCCCC1=C(OC)C(NC(=O)CCCCCCCCCCC)=CC(=O)C1=O`, the T/C was 92 % of control (dose: 50.0 mg/kg/injection, schedule: Q01DX001 (ip), vehicle: Klucel (hydroxypropylcellulose) (HPC)); 88 % of control (dose: 100.0 mg/kg/injection, schedule: Q01DX001 (ip), vehicle: Klucel (hydroxypropylcellulose) (HPC)); 90 % of control (dose: 200.0 mg/kg/injection, schedule: Q01DX001 (ip), vehicle: Klucel (hydroxypropylcellulose) (HPC)).
As for `CN1CCC(=C2c3ccccc3C(=O)C(=O)c3sccc32)CC1`, the T/C by setting is: under setting [1], 95 % of control; under setting [2], 95 % of control; under setting [3], 111 % of control.
